Data as given in BindingDB's records for doi:10.1021/acs.jmedchem.5b00354 (Florida Atlantic University, 2015).

Test: Inhibition of ADAM17 in human A549 cells assessed as potentiation of gefitinib-mediated inhibition of cell viability by measuring gefitinib IC50 at 40 uM incubated for 1 hr followed by gefitinib addition measured after 72 hrs by CellTiter-Glo assay (Rvb = 8.4 microM)

`O=C1NC[C@@H](Cc2ccc(O)cc2)N(C[C@@H]2CCCN2C[C@@H](Cc2ccc3ccccc3c2)N2C[C@H](Cc3ccc(O)cc3)N(CCC34CC5CC(CC(C5)C3)C4)C(=O)C2=O)C1=O` gave an IC50 of 1900 nM.
